Read-outs that look alike come from different tables or passages of the source.
Key:
[1] = molecular target: T1, HCV NS5B polymerase (NS5BΔCT21, from HCV-Con 1 isolate, genotype 1b) (Hepatitis C virus genotype 1b, UniProt Q9WMX2); experiment: HCV NS5B Polymerase Inhibition Assay; type: biochemical
T1 construct: A soluble C-terminal 21-amino acid truncated NS5B enzyme form; polyhistidine (C); made in house; host or cells: Escherichia coli
Source text: A chemically synthesized 75-mer version, designated DCoH75, whose sequence matches the 3′-end of D-RNA, and DCoH75ddC, where the 3′-terminal cytidine of DCoH75 is replaced by dideoxycytidine, were used for assaying the NS5B enzyme activity as described in Ferrari et al., 12th International Symposium on HCV and Related Viruses, P-306 (2005). The sequence of the template RNA was: 5′-UGUGCCGGUCUUUCUGAACGGGAUAUAAACCUGGCCAGCUUCAUCGAACAAGUUGCCGUGUCUAUGACAUAGAUC-3′. A soluble C-terminal 21-amino acid truncated NS5B enzyme form (NS5BΔCT21, from HCV-Con 1 isolate, genotype 1b, Genbank accession number AJ238799) was produced and purified from Escherichia coli as C-terminal polyhistidine-tagged fusion protein as described in Ferrari et al., J. Virol. 73:1649-1654 (1999). A typical assay contained 20 mM Hepes pH 7.3, 10 mM MgCl2, 60 mM NaCl, 100 μg/ml BSA, 20 units/ml RNasin, 7.5 mM DTT, 0.1 μM ATP/GTP/UTP, 0.026 μM CTP, 0.25 mM GAU, 0.03 μM RNA template, 20 μCi/ml [^33P]-CTP, 2% DMSO, and 30 or 150 nM NS5B enzyme. Reactions were incubated at 22° C. for 2 hours, then stopped by adding 150 mM EDTA, washed in DE81 filter plate in 0.5M di-basic sodium phosphate buffer, pH 7.0, and counted using Packard TopCount after the addition of scintillation cocktail. Polynucleotide synthesis was monitored by the incorporation of radiolabeled CTP. The effect of the Compounds of Formula (I) on the polymerase activity was evaluated by adding various concentrations of a Compound of Formula (I), typically in 10 serial 2-fold dilutions, to the assay mixture. The starting concentrations ranged from 200 μM to 1 μM. An IC50 value for the inhibitor, defined as the compound concentration that provides 50% inhibition of polymerase activity, was determined by fitting the cpm data to the Hill equation Y=100/(1+10^((LogIC50-X)*HillSlope)), where X is the logarithm of compound concentration, and Y is the % inhibition. Ferrari et al., 12th International Symposium on HCV and Related Viruses, P-306 (2005) described in detail this assay procedure. It should be noted that such an assay as described is exemplary and not intended to limit the scope of the invention. The skilled practitioner can appreciate that modifications including but not limited to RNA template, primer, nucleotides, NS5B polymerase form, buffer composition, can be made to develop similar assays that yield the same result for the efficacy of the compounds and compositions described in the invention.
NS5B polymerase inhibition data for selected Compounds of Formula (I) is provided below in Table 2, wherein the compound numbers correspond to the compound numbering set forth in the above specification.

[2] = system: HCV replicon cells (replicon RNA level); experiment: Cell-Based HCV Replicon Assay; details: Hepatitis C virus, 72 h; replicon RNA level by real time PCR (Taqman), cells harvested on day 3; read-out: EC50
Protocol: To measure cell-based anti-HCV activity of the a Compound of Formula (I), replicon cells were seeded at 5000 cells/well in 96-well collagen I-coated Nunc plates in the presence of the Compound of Formula (I). Various concentrations of a Compound of Formula (I), typically in 10 serial 2-fold dilutions, were added to the assay mixture, with the starting concentration ranging from 250 μM to 1 μM. The final concentration of DMSO was 0.5%, fetal bovine serum was 5%, in the assay media. Cells were harvested on day 3 by the addition of 1× cell lysis buffer (Ambion cat #8721). The replicon RNA level was measured using real time PCR (Taqman assay). The amplicon was located in 5B. The PCR primers were: 5B.2F, ATGGACAGGCGCCCTGA; 5B.2R, […]; the probe sequence was FAM-labeled CACGCCATGCGCTGCGG. GAPDH RNA was used as endogenous control and was amplified in the same reaction as NS5B (multiplex PCR) using primers and VIC-labeled probe recommended by the manufacturer (PE Applied Biosystem). The real-time RT-PCR reactions were run on ABI PRISM 7900HT Sequence Detection System using the following program: 48° C. for 30 min, 95° C. for 10 min, 40 cycles of 95° C. for 15 sec, 60° C. for 1 min. The ΔCT values (CT5B-CTGAPDH) were plotted against the concentration of test compound and fitted to the sigmoid dose-response model using XLfit4 (MDL). EC50 was defined as the concentration of inhibitor necessary to achieve ΔCT=1 over the projected baseline; EC90 the concentration necessary to achieve ΔCT=3.2 over the baseline. Alternatively, to quantitate the absolute amount of replicon RNA, a standard curve was established by including serially diluted T7 transcripts of replicon RNA in the Taqman assay. All Taqman reagents were from PE Applied Biosystems. Such an assay procedure was described in detail in e.g. Malcolm et al., Antimicrobial Agents and Chemotherapy 50: 1013-1020 (2006).
HCV Replicon assay data for selected Compounds of Formula (I) is provided below in Table 1, wherein the compound numbers correspond to the compound numbering set forth in the above specification.

[3] = NS5B polymerase inhibition, [33P]-CTP incorporation, 22° C. for 2 hours, read-out: IC50

SMILES	IC50 [1, 3] [nM]	EC50 [2] [nM]	IC50 [1] [nM]
O=C(O)c1c(-c2ccc[nH]c2=O)c2c3occc3ccc2n1Cc1ccccc1F [Compound 1]	< 25	< 500	
CS(=O)(=O)NC(=O)c1c(-c2ccc[nH]c2=O)c2c3occc3ccc2n1Cc1ccc(F)cc1F [Compound 4]	25 to 100	< 500	
CS(=O)(=O)NC(=O)c1c(-c2ccc[nH]c2=O)c2c3occc3ccc2n1Cc1ccccc1F [Compound 4]	< 25	< 500	
CS(=O)(=O)NC(=O)c1c(-c2ccc[nH]c2=O)c2c3ccoc3ccc2n1Cc1ccc(F)cc1F [Compound 9]	< 25	> 1500	
COc1ccc(S(=O)(=O)NC(=O)c2c(-c3ccc[nH]c3=O)c3c4ccoc4ccc3n2Cc2ccc(F)cc2F)cc1 [Compound 10]	25 to 100	> 1500	
CS(=O)(=O)Nc1cccc(S(=O)(=O)NC(=O)c2c(-c3ccc[nH]c3=O)c3c4ccoc4ccc3n2Cc2ccc(F)cc2F)c1 [Compound 11]	25 to 100	> 1500	
CS(=O)(=O)NC(=O)c1c(-c2ccc[nH]c2=O)c2c3c(ccc2n1Cc1cc(F)ccc1F)CCC3 [Compound 12]	< 25	500 to 1500	
Nc1cc(Cn2c(C(=O)O)c(-c3ccc[nH]c3=O)c3c4scnc4ccc32)ccn1 [Compound 13]	> 100	> 1500	
Nc1cc(Cn2c(C(=O)O)c(-c3ccc[nH]c3=O)c3c4ncsc4ccc32)ccn1 [Compound 14]	< 25	500 to 1500	
O=C(O)c1c(-c2ccc[nH]c2=O)c2c3occc3ccc2n1Cc1ccc(F)cc1F [Compound 16]	< 25	500 to 1500	
O=C(O)c1c(-c2ccc[nH]c2=O)c2c3scnc3ccc2n1Cc1ccc(F)cc1F [Compound 16]	> 100	> 1500	
O=C(O)c1c(-c2ccc[nH]c2=O)c2c3ncsc3ccc2n1Cc1ccc(F)cc1F [Compound 17]	< 25	> 1500	
CCc1coc2c1ccc1c2c(-c2ccc[nH]c2=O)c(C(=O)O)n1Cc1cc(F)ccc1F [Compound 24]	> 100	> 1500	
O=C(O)c1c(-c2ccc[nH]c2=O)c2c3sccc3ccc2n1Cc1cc(F)ccc1F [Compound 33]	25 to 100	> 1500	
O=C(O)c1c(-c2ccc[nH]c2=O)c2c3sccc3ccc2n1Cc1ccccc1F [Compound 34]	25 to 100	500 to 1500	
O=C(O)c1c(-c2ccc[nH]c2=O)c2c3c(ccc2n1Cc1cc(F)ccc1F)OC(F)(F)O3 [Compound 37]	< 25	> 1500	
O=C(O)c1c(-c2ccc[nH]c2=O)c2c3ccoc3ccc2n1Cc1ccccc1F [Compound 39]	25 to 100	> 1500	
O=C(O)c1c(-c2ccc[nH]c2=O)c2c3ccoc3ccc2n1Cc1cc(F)ccc1F [Compound 40]	25 to 100	> 1500	

SMILES	IC50 [1, 3] [nM]	EC50 [2] [nM]	IC50 [1] [nM]
Cc1ccccc1Cn1c(C(=O)O)c(-c2ccc[nH]c2=O)c2c3occc3ccc21 [Compound 41]	< 25	< 500	
CCc1coc2c1ccc1c2c(-c2ccc[nH]c2=O)c(C(=O)O)n1Cc1ccccc1F [Compound 43]	> 100	> 1500	
O=C(O)c1c(-c2ccc[nH]c2=O)c2c3occ(Cl)c3ccc2n1Cc1ccccc1F [Compound 45]	< 25	< 500	
O=C(O)c1c(-c2ccc[nH]c2=O)c2c3occ(Cl)c3ccc2n1Cc1cc(F)ccc1F [Compound 46]	< 25	< 500	
Cc1coc2c1ccc1c2c(-c2ccc[nH]c2=O)c(C(=O)O)n1Cc1cc(F)ccc1F [Compound 47]	> 100	> 1500	
Cc1cccc(Cn2c(C(=O)O)c(-c3ccc[nH]c3=O)c3c4occ(C)c4ccc32)c1F [Compound 48]	> 100	> 1500	
CS(=O)(=O)NC(=O)c1c(-c2ccc[nH]c2=O)c2c3ncsc3ccc2n1Cc1ccccc1F [Compound 50]	< 25	< 500	
CCOC(=O)c1c(-c2ccccc2F)c2c3c(C)c(C)[nH]c3ccc2n1Cc1ccccc1 [Compound 51]		> 1500	> 100
Cc1ccccc1Cn1c(C(=O)NS(C)(=O)=O)c(-c2ccc[nH]c2=O)c2c3ncsc3ccc21 [Compound 51]		< 500	< 25
CS(=O)(=O)NC(=O)c1c(-c2ccc[nH]c2=O)c2c3sccc3ccc2n1Cc1cc(F)ccc1F [Compound 52]	< 25	> 1500	
CS(=O)(=O)NC(=O)c1c(-c2ccc[nH]c2=O)c2c3c(ccc2n1Cc1ccccc1F)OC(F)(F)O3 [Compound 56]		> 1500	< 25
CCS(=O)(=O)NC(=O)c1c(-c2ccc[nH]c2=O)c2c3occc3ccc2n1Cc1cc(F)ccc1F [Compound 57]	< 25	< 500	
CS(=O)(=O)NC(=O)c1c(-c2ccc[nH]c2=O)c2c3c(ccc2n1Cc1cc(F)ccc1F)CCO3 [Compound 59]		< 500	< 25
Cc1ccc(Cn2c(C(=O)NS(C)(=O)=O)c(-c3ccc[nH]c3=O)c3c4occc4ccc32)c(C)c1 [Compound 60]	< 25	< 500	
Cc1ccccc1Cn1c(C(=O)NS(C)(=O)=O)c(-c2ccc[nH]c2=O)c2c3occc3ccc21 [Compound 61]	< 25	< 500	
O=C(NS(=O)(=O)C1CC1)c1c(-c2ccc[nH]c2=O)c2c3occc3ccc2n1Cc1cc(F)ccc1F [Compound 62]	< 25	< 500	
CC(C)S(=O)(=O)NC(=O)c1c(-c2ccc[nH]c2=O)c2c3occc3ccc2n1Cc1cc(F)ccc1F [Compound 63]	< 25	< 500	

Source: patent US8557848B2, “4,5-ring annulated indole derivatives for treating or preventing of HCV and related viral infections” (Merck Sharp & Dohme Corp., priority 2006, dated 2013)
